From patent US10202361B2, “Pyridazinones as herbicides” (E I DU PONT DE NEMOURS AND COMPANY, priority 2014, dated 2019)

Assays:
Assay in all cases: Test E pre-/postemergence greenhouse herbicide test
Assay type in all cases: in vivo
Details in all cases: Preemergence, scale 0 to 100
[1] = test system: lambsquarters (Chenopodium album)
Text: (§1) Seeds of plant species selected from corn (Zea mays), soybean (Glycine max), lambsquarters (Chenopodium album), poinsettia, wild (wild poinsettia, Euphorbia heterophylla), pigweed, palmer (palmer pigweed, Amaranthus palmeri), waterhemp (common waterhemp, Amaranthus rudis), surinam grass (Brachiaria decumbens), crabgrass, large (large crabgrass Digitaria sanguinalis), crabgrass, Brazil (Brazilian crabgrass, Digitaria horizontalis), panicum, fall (fall panicum, Panicum dichotomiflorum), foxtail, giant (giant foxtail, Setaria faberii), foxtail, green (green foxtail, Setaria viridis), goosegrass (Eleusine indica), johnsongrass (Sorghum halepense), ragweed (common ragweed, Ambrosia elatior), barnyardgrass (Echinochloa crus-galli), sandbur (southern sandbur, Cenchrus echinatus), arrowleaf sida (Sida rhombifolia), ryegrass, Italian (Italian ryegrass, Lolium multiflorum), dayflower, VA (Virginia dayflower, Commelina virginica), field bindweed (Convolvulus arvensis), cocklebur (common cocklebur, Xanthium strumarium), morningglory (Ipomoea coccinea), nightshade (eastern black nightshade, Solanum ptycanthum), kochia (Kochia scoparia), nutsedge, yellow (yellow nutsedge, Cyperus esculentus), smartweed (ladysthumb smartweed, Polygonum persicaria), velvetleaf (Abutilon theophrasti), and beggarticks (hairy beggarticks, Bidens pilosa), were planted into a silt loam soil and treated preemergence with test chemicals formulated in a non-phytotoxic solvent mixture which included a surfactant.
(§2) At the same time, plants from these crop and weed species and also waterhemp_RES1, (ALS & Triazine resistant common waterhemp, Amaranthus rudis), and waterhemp_RES2, (ALS & HPPD resistant common waterhemp, Amaranthus rudis) were planted in pots containing Redi-Earth® planting medium (Scotts Company, 14111 Scottslawn Road, Marysville, Ohio 43041) comprising spaghnum peat moss, vermiculite, wetting agent and starter nutrients were treated with postemergence applications of test chemicals formulated in the same manner. Plants ranged in height from 2 to 18 cm for postemergence treatments (1- to 4-leaf stage). Treated plants and controls were maintained in a greenhouse for 14 to 21 d, after which time all species were compared to controls and visually evaluated. Plant response ratings, summarized in Table E, are based on a scale of 0 to 100 where 0 is no effect and 100 is complete control. A dash (-) response means no test result.

[2] = test system: dayflower, VA (Virginia dayflower, Commelina virginica)
Text: as §1, §2

[3] = test system: ragweed (common ragweed, Ambrosia elatior)
Text: as §1, §2

[4] = test system: velvetleaf (Abutilon theophrasti)
Text: as §1, §2

[5] = test system: arrowleaf sida (Sida rhombifolia)
Text: as §1, §2

soybean (Glycine max) = test system: soybean (Glycine max)
Text: as §1, §2

[6] = test system: morningglory (Ipomoea coccinea)
Text: as §1, §2

[7] = test system: sandbur (southern sandbur, Cenchrus echinatus)
Text: as §1, §2

[8] = test system: foxtail, green (green foxtail, Setaria viridis)
Text: as §1, §2

[9] = test system: field bindweed (Convolvulus arvensis)
Text: as §1, §2

[10] = test system: waterhemp (common waterhemp, Amaranthus rudis)
Text: as §1, §2

[11] = test system: ryegrass, Italian (Italian ryegrass, Lolium multiflorum)
Text: as §1, §2

[12] = test system: crabgrass, Brazil (Brazilian crabgrass, Digitaria horizontalis)
Text: as §1, §2

kochia (Kochia scoparia) = test system: kochia (Kochia scoparia)
Text: as §1, §2

[13] = test system: panicum, fall (fall panicum, Panicum dichotomiflorum)
Text: as §1, §2

[14] = test system: nightshade (eastern black nightshade, Solanum ptycanthum)
Text: as §1, §2

CCOc1cc(=O)n(-c2ccc(F)cc2)nc1Cc1ccnc(C(F)(F)F)c1 [Compound 25, 5-ethoxy-2-(4-fluorophenyl)-6-[[2-(trifluoromethyl)-4-pyridinyl]methyl]-3 (2H)-pyridazinone]
Plant response rating: Lambsquarters ([1]; 8 g ai/ha): 65
Plant response rating: Lambsquarters ([1]; 16 g ai/ha): 98
Plant response rating: Lambsquarters ([1]; 31 g ai/ha): 100
Plant response rating: Lambsquarters ([1]; 62 g ai/ha): 100
Plant response rating: Lambsquarters ([1]; 125 g ai/ha): 100
Plant response rating: Dayflower, VA ([2]; 8 g ai/ha): 0
Plant response rating: Dayflower, VA ([2]; 16 g ai/ha): 0
Plant response rating: Dayflower, VA ([2]; 31 g ai/ha): 15
Plant response rating: Dayflower, VA ([2]; 62 g ai/ha): 20
Plant response rating: Dayflower, VA ([2]; 125 g ai/ha): 70
Plant response rating: Ragweed ([3]; 8 g ai/ha): 0
Plant response rating: Ragweed ([3]; 16 g ai/ha): 0
Plant response rating: Ragweed ([3]; 31 g ai/ha): 0
Plant response rating: Ragweed ([3]; 62 g ai/ha): 20
Plant response rating: Ragweed ([3]; 125 g ai/ha): 50
Plant response rating: Velvetleaf ([4]; 8 g ai/ha): 0
Plant response rating: Velvetleaf ([4]; 16 g ai/ha): 20
Plant response rating: Velvetleaf ([4]; 31 g ai/ha): 0
Plant response rating: Velvetleaf ([4]; 62 g ai/ha): 30
Plant response rating: Velvetleaf ([4]; 125 g ai/ha): 80
Plant response rating: Arrowleaf Sida ([5]; 8 g ai/ha): 0
Plant response rating: Arrowleaf Sida ([5]; 16 g ai/ha): 5
Plant response rating: Arrowleaf Sida ([5]; 31 g ai/ha): 5
Plant response rating: Arrowleaf Sida ([5]; 62 g ai/ha): 35
Plant response rating: Arrowleaf Sida ([5]; 125 g ai/ha): 40
Plant response rating: Soybean (soybean (Glycine max); 8 g ai/ha): 0
Plant response rating: Soybean (soybean (Glycine max); 16 g ai/ha): 0
Plant response rating: Soybean (soybean (Glycine max); 31 g ai/ha): 0
Plant response rating: Soybean (soybean (Glycine max); 62 g ai/ha): 20
Plant response rating: Soybean (soybean (Glycine max); 125 g ai/ha): 30
Plant response rating: Morningglory ([6]; 8 g ai/ha): 0
Plant response rating: Morningglory ([6]; 16 g ai/ha): 0
Plant response rating: Morningglory ([6]; 31 g ai/ha): 5
Plant response rating: Morningglory ([6]; 62 g ai/ha): 50
Plant response rating: Morningglory ([6]; 125 g ai/ha): 65
Plant response rating: Sandbur ([7]; 8 g ai/ha): 0
Plant response rating: Sandbur ([7]; 16 g ai/ha): 0
Plant response rating: Sandbur ([7]; 31 g ai/ha): 20
Plant response rating: Sandbur ([7]; 62 g ai/ha): 30
Plant response rating: Sandbur ([7]; 125 g ai/ha): 60
Plant response rating: Foxtail, Green ([8]; 8 g ai/ha): 0
Plant response rating: Foxtail, Green ([8]; 16 g ai/ha): 5
Plant response rating: Foxtail, Green ([8]; 31 g ai/ha): 35
Plant response rating: Foxtail, Green ([8]; 62 g ai/ha): 90
Plant response rating: Foxtail, Green ([8]; 125 g ai/ha): 100
Plant response rating: Field Bindweed ([9]; 8 g ai/ha): 0
Plant response rating: Field Bindweed ([9]; 16 g ai/ha): 0
Plant response rating: Field Bindweed ([9]; 31 g ai/ha): 0
Plant response rating: Field Bindweed ([9]; 62 g ai/ha): 5
Plant response rating: Field Bindweed ([9]; 125 g ai/ha): 100
Plant response rating: Waterhemp ([10]; 8 g ai/ha): 35
Plant response rating: Waterhemp ([10]; 16 g ai/ha): 50
Plant response rating: Waterhemp ([10]; 31 g ai/ha): 100
Plant response rating: Waterhemp ([10]; 62 g ai/ha): 100
Plant response rating: Waterhemp ([10]; 125 g ai/ha): 100
Plant response rating: Ryegrass, Italian ([11]; 8 g ai/ha): 0
Plant response rating: Ryegrass, Italian ([11]; 16 g ai/ha): 30
Plant response rating: Ryegrass, Italian ([11]; 31 g ai/ha): 30
Plant response rating: Ryegrass, Italian ([11]; 62 g ai/ha): 40
Plant response rating: Ryegrass, Italian ([11]; 125 g ai/ha): 50
Plant response rating: Crabgrass, Brazil ([12]; 8 g ai/ha): 0
Plant response rating: Crabgrass, Brazil ([12]; 16 g ai/ha): 75
Plant response rating: Crabgrass, Brazil ([12]; 31 g ai/ha): 98
Plant response rating: Crabgrass, Brazil ([12]; 62 g ai/ha): 100
Plant response rating: Crabgrass, Brazil ([12]; 125 g ai/ha): 100
Plant response rating: Kochia (kochia (Kochia scoparia); 8 g ai/ha): 40
Plant response rating: Kochia (kochia (Kochia scoparia); 16 g ai/ha): 50
Plant response rating: Kochia (kochia (Kochia scoparia); 31 g ai/ha): 70
Plant response rating: Kochia (kochia (Kochia scoparia); 62 g ai/ha): 100
Plant response rating: Kochia (kochia (Kochia scoparia); 125 g ai/ha): 95
Plant response rating: Panicum, Fall ([13]; 8 g ai/ha): 0
Plant response rating: Panicum, Fall ([13]; 16 g ai/ha): 35
Plant response rating: Panicum, Fall ([13]; 31 g ai/ha): 50
Plant response rating: Panicum, Fall ([13]; 62 g ai/ha): 100
Plant response rating: Panicum, Fall ([13]; 125 g ai/ha): 100
Plant response rating: Nightshade ([14]; 8 g ai/ha): 5
Plant response rating: Nightshade ([14]; 16 g ai/ha): 50
Plant response rating: Nightshade ([14]; 31 g ai/ha): 80
Plant response rating: Nightshade ([14]; 62 g ai/ha): 98
Plant response rating: Nightshade ([14]; 125 g ai/ha): 100
